Measured values reported in patent US7713937B2, “Synthetic peptide amides and dimeric forms thereof” (Cara Therapeutics, Inc., priority 2006, dated 2010).
Square brackets hold non-standard residues; d marks the D form. Peptide text beside a SMILES is read from it. dOrn = NCCC[C@@H](N)C(=O)O; Inp = O=C(O)C1CCNCC1

Experiments:
[1] = target: T1, mouse kappa opioid receptor (mKOR) (Mus musculus, UniProt P33534); assay: cell-based; conditions: for Emax: read-out: mKOR Efficacy(%)
T1 construct: Stimulation of Endogenous Mouse Kappa-Opioid Receptor in R1.G1 Cells; host or cells: R1.G1 mouse thymoma cells

[2] = target: T2, human kappa opioid receptor (hKOR) (Homo sapiens, UniProt P41145); assay: cell-based; conditions: for Emax: HEK293, read-out: hKOR Efficacy(%)
T2 construct: expressed in transfected cells; host or cells: HEK-293 cells, transient transfection with Fugene6
T2 sequence (P41145 whole entry): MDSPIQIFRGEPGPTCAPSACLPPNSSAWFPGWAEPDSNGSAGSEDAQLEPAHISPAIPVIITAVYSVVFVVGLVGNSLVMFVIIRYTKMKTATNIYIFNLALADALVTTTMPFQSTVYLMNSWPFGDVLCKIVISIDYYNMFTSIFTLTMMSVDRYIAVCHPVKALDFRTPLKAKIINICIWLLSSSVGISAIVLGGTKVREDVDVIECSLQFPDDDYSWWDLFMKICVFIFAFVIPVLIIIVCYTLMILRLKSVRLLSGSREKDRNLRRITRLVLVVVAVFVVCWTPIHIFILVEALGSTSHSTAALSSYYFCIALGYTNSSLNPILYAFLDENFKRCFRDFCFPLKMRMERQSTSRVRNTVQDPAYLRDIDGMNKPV

T1 sequence (P33534 whole entry): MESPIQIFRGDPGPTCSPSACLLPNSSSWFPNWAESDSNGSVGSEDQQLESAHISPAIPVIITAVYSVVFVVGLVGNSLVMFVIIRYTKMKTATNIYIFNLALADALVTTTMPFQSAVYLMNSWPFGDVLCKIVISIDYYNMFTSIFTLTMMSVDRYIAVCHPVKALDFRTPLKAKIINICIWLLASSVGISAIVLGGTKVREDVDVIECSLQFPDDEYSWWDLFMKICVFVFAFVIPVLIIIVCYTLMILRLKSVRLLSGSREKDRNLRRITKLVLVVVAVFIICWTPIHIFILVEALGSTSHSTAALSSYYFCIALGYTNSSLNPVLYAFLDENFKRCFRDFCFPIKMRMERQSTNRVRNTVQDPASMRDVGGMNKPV

| SMILES | EC50 [1] [nM] | Emax [1] [%] | EC50 [2] [nM] | Emax [2] [%] |
| --- | --- | --- | --- | --- |
| CC(C)C[C@@H](NC(=O)[C@@H](Cc1ccccc1)NC(=O)[C@H](N)Cc1ccccc1)C(=O)N[C@H](CCCN)C(=O)N1CCC(N)(C(=O)O)CC1 [Compound (43), D-Phe-D-Phe-D-Leu-D-Orn-[ω(4-aminopiperidine-4-carboxylic acid)]-OH] | 0.041 | 100 | 0.14 | 107 |
| CC(C)C[C@@H](NC(=O)[C@@H](Cc1ccccc1)NC(=O)[C@H](N)Cc1ccccc1)C(=O)N[C@H](CCCN)C(=O)N1CCC(CC(N)C(=O)O)CC1 (stereo partly drawn) [Compound (44), D-Phe-D-Phe-D-Leu-D-Orn-[ω(D/L-2-amino-3-(4-N-piperidinyl)propionic acid)]-OH] | 0.028 | 102 | 0.13 | 104 |
| CC(C)C[C@@H](NC(=O)[C@@H](Cc1ccccc1)NC(=O)[C@H](N)Cc1ccccc1)C(=O)N[C@H](CCCN)C(=O)N1CCNC(C(=O)O)C1 (stereo partly drawn) [Compound (45), D-Phe-D-Phe-D-Leu-D-Orn-[ω(D/L-4-piperazine-2-carboxylic acid)]-OH] | 0.197 | 102 | 0.15 | 93 |
| CC(C)C[C@@H](NC(=O)[C@@H](Cc1ccccc1)NC(=O)[C@H](N)Cc1ccccc1)C(=O)N[C@H](CCCN)C(=O)N1CCC(C(=O)O)CC1 [Compound (46), D-Phe-D-Phe-D-Leu-D-Orn-[Isonipecotic acid]-OH] (H-[dF][dF][dL][dOrn][Inp]-OH) | 0.088 | 92 | 0.28 | 128 |
| CC(C)C[C@@H](NC(=O)[C@@H](Cc1ccccc1)NC(=O)[C@H](N)Cc1ccccc1)C(=O)N[C@H](CCCN)C(=O)N1CCC(N2CCC[C@H]2C(=O)O)CC1 [Compound (47), D-Phe-D-Phe-D-Leu-D-Orn-[N-(4-piperidinyl)-L-proline]-OH] | 0.085 | 99 | 0.17 | 92 |
| CC(C)C[C@@H](NC(=O)[C@@H](Cc1ccccc1)NC(=O)[C@H](N)Cc1ccccc1)C(=O)N[C@H](CCCN)C(=O)N1CCC(CCCC(=O)O)CC1 [Compound (48), D-Phe-D-Phe-D-Leu-D-Orn-[4-(4-piperidinyl)-butanoic acid]-OH] | 0.092 | 100 | 0.26 | 97 |
| CC(C)C[C@@H](NC(=O)[C@@H](Cc1ccccc1)NC(=O)[C@H](N)Cc1ccccc1)C(=O)N[C@H](CCCN)C(=O)NCCN1CCN(CC(N)=O)CC1 [Compound (49), D-Phe-D-Phe-D-Leu-D-Orn-[4-(2-aminoethyl)-1-carboxymethyl-piperazine]-NH2] | 0.115 | 96 | 0.22 | 96 |
| CC(C)C[C@@H](NC(=O)[C@@H](Cc1ccccc1)NC(=O)[C@H](N)Cc1ccccc1)C(=O)N[C@H](CCCN)C(=O)N1CCC(N2CCC[C@H]2C(N)=O)CC1 [Compound (50), D-Phe-D-Phe-D-Leu-D-Orn-[N-(4-piperidinyl)-L-proline]-NH2] | 0.022 | 96 | 0.19 |  |
| CCN1CCCN(C(=O)[C@@H](CCCN)NC(=O)[C@@H](CC(C)C)NC(=O)[C@@H](Cc2ccccc2)NC(=O)[C@H](N)Cc2ccccc2)CC1 [Compound (55), D-Phe-D-Phe-D-Leu-D-Orn-[4-ethylhomopiperazine amide]] | 0.049 | 99 | 0.14 | 93 |
| CC(C)C[C@@H](NC(=O)[C@@H](Cc1ccccc1)NC(=O)[C@H](N)Cc1ccccc1)C(=O)N[C@H](CCCN)C(=O)N1CCCNCC1 [Compound (56), D-Phe-D-Phe-D-Leu-D-Orn-[homopiperazine amide]] | 0.08 | 100 | 0.22 |  |
| CNCCC[C@@H](NC(=O)[C@@H](CC(C)C)NC(=O)[C@@H](Cc1ccccc1)NC(=O)[C@H](N)Cc1ccccc1)C(=O)N1CCCN(C(=N)N)CC1 [Compound (57), D-Phe-D-Phe-D-Leu-(δ-Me)D-Orn-[4-amidinohomopiperazine amide]] | 0.078 | 97 | 0.09 | 101 |
